From patent US20130216482A1, “METHODS AND COMPOSITIONS FOR NON-INVASIVE, DYNAMIC IMAGING OF INTESTINAL MOTILITY” (The Board of Regents of the University of Texas System, priority 2012, published 2013) come the findings set out here.

The structures appear in SMILES notation.

The data set in a line: In vivo dynamic NIR fluorescence imaging of ICG distribution, clearance and GI transit. Details: species or system mice. On the procedure:
Mice were chosen because part of the study involved opening the peritoneal cavity and removing organs to provide detailed information about the method and its abilities. Therefore, the subjects of the study were Female C57BL6 mice (4-6 wk old; Charles River, Wilmington, Mass., USA) that were housed and maintained in a pathogen-free mouse facility accredited by the American Association for Laboratory Animal Care. All studies were performed in accordance with the guidelines of the Institutional Animal Care and Use Committee. Animal experiments were approved by University of Texas Health Science Center Institutional Animal Care and Usage Committee in accordance with NIH guidelines.
In order to carry out in vivo dynamic NIR imaging of GI Motility, the mice were anesthetized with isofluorane and maintained at 37° C. on a warming pad. A volume of 10 μl and 50 ul of 645 μM of IC-Green (Akorn, Inc. Buffalo Grove, Ill., USA) dissolved in mixture of distilled water and 0.9% Sodium Chloride in a volume ratio of 1:9 was injected intradermally and intravenously, respectively.
For intravenous injection of ICG, a catheter was placed in the tail vein of anesthetized mice to facilitate the subsequent delivery of the fluorescent dye. Dynamic fluorescence images were acquired for a period of approximately 6 min immediately before and up to 24 hrs after intravenous injection using a custom-built NIR fluorescence imaging system, the basics of which are presented in FIG. 6 and has been described elsewhere (for example U.S. Pat. Nos. 8,084,753; 7,875,260; 7,865,230; 7,599,732; 7,328,059; 7,268,873; 7,187,441; 7,054,002; 6,930,777; 6,771,370; 5,818,583; 5,865,754 and Kwon and Sevick-Muraca, Lymphat Res Biol 5, 219-231, 2007; Kwon and Sevick-Muraca, J Immunol Methods 360, 167-172, 2010). Anesthetized mice were uniformly illuminated by 785 nm light from a laser diode and the emitted fluorescence was collected using an Electron Multiplying Charge Coupled Device (EMCCD) camera with a holographic filter and a bandpass filter placed prior to a 28 mm lens. Image acquisition with the camera exposure time of 100 ms for fluorescence and white light imaging was accomplished by V++ software. The abdominal skin temperature was monitored for temperature changes during dynamic fluorescence imaging using an infrared thermometer but no temperature changes were observed. Because it was possible that the non-invasive imaging of the intestines may not distinguish the GI lumen from blood and lymphatic vessels, necropsy of the mouse with exposure of the abdomen was performed at 1 hr post injection (p.i.) and the GI tract was removed and laid out on a black paper for intravital imaging.
The data obtained were analyzed with a custom Matlab (The MathWorks, Inc., Natick, Mass., USA) program and ImageJ (National Institutes of Health, Bethesda, Md., USA). Fixed regions of interest (ROIs) from equivalent areas were selected along the length of the fluorescent intestine. An average fluorescent intensity within each ROI was plotted as a function of imaging time and/or length of the intestine. A three-dimensional plot of fluorescent intensity as a function of time and distance was generated and used as a spatio-temporal map to assess the propagation velocity and the frequency of the propagation along the intestine. No corrections were made for respiratory movements in the construction of the three-dimensional spatio-temporal maps. The packet of fluorescent contents is represented by the peak in fluorescence intensity which propagates along the intestine with time. Two ROIs were identified, from which the distance and time information was extracted to measure the propagation velocity. In this study, peristalsis was defined as aboral propagation of contraction waves along the intestine.

[1] abbreviates: 1 hr post injection, abdomen exposed (FIG. 4: intravenous).

As to `CC1(C)C(/C=C/C=C/C=C/C=C2\N(CCCCS(=O)(=O)O)c3ccc4ccccc4c3C2(C)C)=[N+](CCCCS(=O)(=O)[O-])c2ccc3ccccc3c21` [ICG, indocyanine green], under setting [1], the “fluorescence in the cecum” value is “weak” and the “fluorescence throughout the small intestine” value was “strong but non-uniform”. For the same compound, where the note is “GI tract removed 1 hr post injection, contents removed”, the “source of fluorescent signal in dissected small intestine” value was “does not arise from the intestinal tissues, but rather from its contents”. The “earliest detection of fluorescent signal in the cecum” value (after intradermal injection, also observed at 24 hr post injection) came to 1 h. The “time fluorescent vessels could be visualized” value (after intravenous administration) is “up to 2 min”. Where the note is “following intravenous injection”, the “distribution of the ICG throughout the mouse” value was “within seconds”. Moreover, where the note is “injected intravenously, 1 h post injection”, the “fluorescent signal in the liver” value is “greatly reduced”. Moreover, the “fluorescence in the liver (and gallbladder)” value (intradermal administration, 1 h post injection) is reported as “still high”. Also, under “post injection, all times”, the “fluorescent signal arising from the stomach” value was “absent at all times”.
